{"source": "patent US12240854B2", "about": "“TRAF 6 inhibitors” (Helmholtz Zentrum München - Deutsches Forschungszentrum für …, priority 2018, dated 2025)", "key": {"TRAF6 RZ1 protein": {"target": "T1, TRAF6 RZ1 protein (Homo sapiens, UniProt Q9Y4K3)", "T1 construct": "GST (N, cleaved yes); made in house; host or cells: E. coli BL21 codon plus RIPL, M9 medium with 15NH4", "T1 sequence (Q9Y4K3 with tags, fused parts or gaps)": "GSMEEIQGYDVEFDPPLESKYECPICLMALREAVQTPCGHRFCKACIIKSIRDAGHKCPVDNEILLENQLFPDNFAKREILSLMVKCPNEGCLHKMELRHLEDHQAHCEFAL", "assay": "Two-dimensional NMR (SOFAST-HMQC) binding experiment", "conditions": "protein:compound 1:5", "description": "To determine whether the inhibitory compounds directly bind to TRAF6 rather than to Ubc13, 2D-NMR experiments were conducted. Untagged ^15N-labeled TRAF6 RZ1 protein (c=120 μM) and compound (c=20 mM) were incubated at a ratio of 1:5 in a 3 mm NMR tube for 10 minutes before spectra acquisition. To observe chemical shift perturbations upon compound addition, two-dimensional SOFAST-HMQC spectra were acquired. All measurements were performed using the Bruker Avance 600 MHz spectrometer."}, "RNF4": {"target": "T2, RNF4 (Homo sapiens, UniProt P78317)", "T2 construct": "purchased Boston Biochem", "T2 sequence (P78317 whole entry)": "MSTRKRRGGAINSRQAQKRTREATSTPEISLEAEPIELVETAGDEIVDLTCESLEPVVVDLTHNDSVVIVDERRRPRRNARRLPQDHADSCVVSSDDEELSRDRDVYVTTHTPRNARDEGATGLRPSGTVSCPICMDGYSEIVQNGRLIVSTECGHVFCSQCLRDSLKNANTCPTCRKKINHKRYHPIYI", "assay": "In vitro ubiquitination assay, RNF4 ubiquitin ligase kit", "format": "biochemical", "description": "For analysis of cIAP1, MDM2, TRIM63, RNF4, ITCH and E6AP mediated poly-ubiquitination, the respective ubiquitin ligase kit from Boston Biochem (K-102, K-260, K-200B, K-220, K-240 and K-270) was used. Here, reaction buffer, E1, E2 and E3 enzyme (and p53 substrate in case of MDM2) were mixed and pre-incubated with compound or DMSO for 5 minutes at room temperature before adding Mg^2+-ATP and mono-ubiquitin for reaction start. Ubiquitination was visualized by Western Blot analyses."}, "[1]": {"system": "IL-2 and TNFα secretion of Jurkat T-cells", "assay": "ELISA cytokine secretion, Jurkat T-cells", "format": "cell-based, human", "description": "(§1) For measurement of cytokine secretion, 2×10^5 Jurkat T-cells or primary CD4^+ T-cells or human PBMCs per sample were seeded, treated with compound for 6 hours and stimulated as indicated. 20 hours after stimulation, supernatants were harvested and analyzed with the IL-2, IL-1β and TNFα Ready-Set-Go! ELISA (2nd Generation) kits provided by Affymatrix eBioscience."}, "MEF cells": {"system": "MEF cells", "assay": "CellTiter-Glo viability assay, MEF cells", "format": "cell-based, mouse", "conditions": "6 or 24 hours incubation", "description": "For cell viability experiments using the CellTiter-Glo® 2.0 system (Promega), MEF cells (1.2×10^3 cells/well), HepG2 cells (4×10^3 cells/well) and Jurkat T-cells (5×10^3 cells/well) were seeded in 384 well plates. After 18 hours, cells were treated with compounds using the Sciclone G3 automation system. After 6 or 24 hours incubation, the luciferase measurement was performed according to the manufacturer's manual."}, "Jurkat T-cells": {"system": "Jurkat T-cells", "assay": "Cell cycle assessment (propidium iodide), Jurkat T-cells", "format": "cell-based, human", "conditions": "24 hours and 72 hours", "description": "(§2) For cell cycle staining, cells were seeded at 2×10^5 cells per sample and treated with compound or DMSO. After the indicated incubation time (24 or 72 hours), cells were fixed in 100% Ethanol and subsequently stained with the Propidium Iodide staining solution (0.1% Triton X-100; 20 μg/ml Propidium Iodide; 200 μg/ml RNAse A in PBS) for 40 min in the dark. The Propidium Iodide fluorescence was collected using the Attune Flow Cytometer (Thermo Fisher Scientific). Analysis was performed using the Single Cell analysis software FlowJo."}, "U2OS cells": {"system": "U2OS cells", "assay": "Cell cycle assessment (propidium iodide), U2OS cells", "format": "cell-based", "conditions": "24 hours and 72 hours", "description": "as §2"}, "ADME: plasma stability": {"assay": "ADME: plasma stability", "format": "in vitro ADME", "description": "(§3) All ADME (plasma stability, plasma protein binding, microsomal stability, Log D, Caco-2 assay, CYP450 inhibition and hERG predictor assay) as well as pharmacokinetic studies (Tmax, Cmax, AUC0-240min, Mean Residence Time, Elimination half life, Elimination rate constant, Volume of Distribution and Clearance) of C25-140 (compound 3) were conducted by Bienta Enamine Biology Services of Bienta/Enamine Ltd."}, "Caco-2": {"system": "Caco-2", "assay": "ADME: Caco-2 assay", "format": "in vitro ADME", "description": "as §3"}, "[2]": {"system": "Collagen-Induced Arthritis (CIA) Model in DBA1/J mice", "assay": "Collagen-Induced Arthritis (CIA) model", "format": "in vivo, mouse", "description": "In order to test the potential of C25-140 to ameliorate RA symptoms, a Collagen-Induced Arthritis (CIA) Model in DBA1/J mice was performed by Washington Biotechnology, Inc. (Baltimore, USA). Each group of ten mice was subjected to a single subcutaneous injection of collagen/complete Freund's Adjuvant emulsion (0.05 ml/mouse; 100 μg collagen/CFA). After 20 days (day 21), mice were booster injected with collagen (0.05 ml/mouse; 100 μg/mouse collagen in Incomplete Freund's Adjuvant). On day 28, mice were scored for their Arthritic Index (AI) and 14 days intraperitoneally dosed twice daily with 6 mg/kg, 10 mg/kg and 14 mg/kg C25-140, respectively. Mice were scored of macroscopic signs of arthritis daily. Thereby, the following scoring index was applied to each individual paw: 0=no visible effects of arthritis; 1=edema and/or erythema of 1 digit; 2=edema and/or erythema of 2 digits; 3=edema and/or erythema of more than 2 digits; 4=severe arthritis of entire paw and digits. Single paw scores were added and recorded. On day 42, animals were euthanized, limbs were collected and histopathology was performed using Toluidine blue staining with scoring of several parameters."}, "[3]": {"system": "primary human peripheral blood mononuclear cells (PBMCs)", "assay": "Human PBMC cytokine secretion (ELISA)", "format": "cell-based", "description": "as §1\nFor isolation of peripheral blood mononuclear cells (PBMCs) from 50 mL human blood of three different donors, blood was mixed with 800 units of Heparin (Sigma-Aldrich) and centrifuged at 300×g for 10 minutes without brake. After removal of the plasma fraction, buffy coat was diluted in 2 volumes PBS and added on top of 15 ml Lymphoprep (STEMCELL technologies). After centrifugation at 160×g for 20 minutes at room temperature without brake, platelets were removed and the cell suspension was centrifuged again at 350×g for 20 minutes without brake. Mononuclear cells from the intermediate layer were transferred to a new falcon and washed 3 times in PBS supplemented with 0.1% BSA and 2 mM EDTA. In the end, cells were resuspended in RPMI medium containing 10% FCS, 1% Penicillin/Streptomycin and 50 μM β-mercaptoethanol. Per sample, 2×10^5 cells were seeded and treated with compound for 6 hours. The cells were stimulated with either 1 μg/ml Lipopolysaccharide (LPS) or CD3/CD28 (1 μg hCD3 (IgG2A), 4 μg hCD28 (IgG1), […] and […]) or 20 ng/IL-1β. Supernatants for analysis of cytokine secretion were harvested 20 hours after stimulation."}}, "note": "Entries after “also recorded” stand apart in the source; their conditions may differ.", "data": [{"smiles": "Cc1nn(-c2ccc3nnc(C)n3n2)c(C)c1CCC(=O)N1CCC(Cc2ccccc2)CC1", "note": "[Example C25-140, 1-(4-Benzylpiperidin-1-yl)-3-(3,5-dimethyl-1-(3-methyl-[1,2,4]-triazolo-[4,3-b]-pyridazin-6-yl)-1H-pyrazol-4-yl)-propan-1-one]", "values": [{"measurement": "direct binding to TRAF6 RZ1 protein (shifting or disappearing of NMR peaks)", "setting": "TRAF6 RZ1 protein", "value": "directly binds to the TRAF6 protein"}, {"measurement": "RNF4 auto-ubiquitination", "setting": "RNF4", "value": "not influenced; also recorded: not affected"}, {"measurement": "cytokine secretion of IL-2 and TNFα", "setting": "[1]", "value": "reduced; also recorded: dose-dependently decreased"}, {"measurement": "metabolic activity and cell viability", "setting": "MEF cells", "value": "did not considerably impact cell viability; also recorded: does not considerably affect metabolic activity and cell viability up to 50 μM; also recorded: at the highest dose of 100 μM toxicity is noticeable"}, {"measurement": "cell cycle progression", "setting": "Jurkat T-cells", "value": "no effects on cell cycle phases; also recorded: not impaired"}, {"measurement": "cell cycle progression", "setting": "U2OS cells", "value": "no effects on cell cycle phases; also recorded: not impaired"}, {"measurement": "plasma stability", "setting": "ADME: plasma stability", "value": "stable"}, {"measurement": "Caco-2 permeability", "setting": "Caco-2", "value": "good penetration of the Caco-2 layer"}, {"measurement": "arthritic index (AI)", "setting": "[2]; 6, 10 and 14 mg/kg IP twice daily, 14 days", "value": "dose-dependently reduced"}, {"measurement": "RA symptoms / disease outcome (in words)", "setting": "[2]; CIA mouse model", "value": "ameliorates RA disease outcomes; also recorded: successfully counteracted clinical symptoms of RA and reversed the disease state; also recorded: eases symptoms"}, {"measurement": "histological score of the limbs (inflammation, pannus formation, cartilage damage, bone resorption)", "setting": "[2]; day 42", "value": "dose-dependently improves RA symptoms; also recorded: attenuated"}, {"measurement": "arthritic index (AI)", "setting": "[2]; doses of 10 mg/kg and 14 mg/kg IP twice daily", "value": "almost completely ameliorated the arthritic index to baseline levels"}, {"measurement": "body weight", "setting": "[2]; throughout the study", "value": "did not show any signs of reduction; also recorded: do not show any signs of weight loss"}, {"measurement": "secretion of IL-2 and TNFα", "setting": "[3]; CD3/CD28 stimulation", "value": "decreased levels of IL-2 and TNFα secretion"}, {"measurement": "secretion of IL-6 and TNFα", "setting": "[3]; IL-1β stimulation", "value": "reduced secretion; also recorded: attenuated"}, {"measurement": "secretion of IL-1β and TNFα", "setting": "[3]; LPS stimulation", "value": "reduced secretion; also recorded: reduced levels of IL-1β and TNFα cytokines"}]}]}
